Like-named read-outs stand apart in the source and are kept apart here.
Assays:
Type in all cases: in vivo
[1] = Pharmacokinetic study of Compound 20 in ICR mice; details: male, mouse, plasma; for concentration at 6 h / concentration at 24 h: n = 3; for AUC(0-inf) / AUC(0-t) / Cmax / Tmax / Vd/F: mean; for Vd/F: read-out: Vz/F
Experimental: 60 male ICR mice were split into two groups of 30. In each group the mice were prescribed Compound 20 at a dosage of 100 mg/kg. This dose was administered orally in group 1 and intraperitoneally in group 2. Each group of 30 mice was subdivided into groups of 3 mice. Blood samples were taken through orbital sinus method at 0, 0.083, 0.25, 0.5, 1, 2, 4, 6, 8 and 24 hours after administering Compound 20 and taken into tubes with anticoagulant at room temperature at least 30 minutes prior to centrifugation, then centrifuged at 10000 rpm for 5 minutes at 4° C. to separate plasma from the blood samples. Following centrifugation, the resulting serum was transferred to clean tubes and stored frozen at −80° C. Immediately following the blood samples, the brain tissue samples of mice were removed and stored frozen at −80° C.
A 20% brain homogenate was prepared by weighing brain tissue sample and adding, corresponding volume of saline into the manual homogenator. The dilution factor was 5 (w/v=1 g: 4 mL). The brain tissue sample was grinded slowly and repeatedly until it has become homogenous.
Plasma and Brain samples were centrifuged at 15777×g for 5 minutes, and 180 ul of supernatant was placed in a 96-well assay plate. To each well, 200 ul of a 50% ACN/H2O was added and the plates were shake-mixed for 3 minutes. 5 ul aliquots of each well were then analyzed using LC-MS/MS.
The standard non-compartmental model was used to generate the pharmacokinetic parameters: Cmax, Tmax, t1/2, AUC0->last, AUC0->inf, CL/F, and Vz/F. The maximum plasma concentration, Cmax, and its corresponding time, Tmax were directly recorded. Elimination rate constant kel was determined by linear regression of the terminal points of the semi-log plot of concentration against time. Elimination half-life was calculated by the formula; t12=0.693/kel. The Area Under the curve value from time 0 to 24 hours was defined as AUCt->last and calculated using the linear trapezoidal rule.

[2] = Toxicity study in BALB/c nude mice containing WiDr colorectal adenocarcinoma xenograft (body weight); details: BALB/c nude mice with WiDr xenograft
Experimental: Female BALB/c nude mice weighing ˜20 g were taken and 5.0 10^6 WiDr cancer cells were implanted into their right flanks with a 1:1 mixture of 0.1 mL PBS and matrigel. The tumor was allowed to grow to a size of ˜150 cubic millimeters (14 days). The mice were randomly chosen by chance and assigned into 5 groups (6 mice per group), one group being the control group to which tumor was allowed to grow without any drug administration (food only). The drugs were administered twice daily by P.O. or I.P. Group 1 mice were administered orally with 50 mg/kg of Compound 20. Groups 2, 3 and 4 mice were treated via IP with 10 mg/kg Compound 20, 8 mg/kg of Compound 14 and 238 mg/kg CHC respectively. Body weight changes were recorded every two days for 3 weeks.

[3] = tested on: WiDr xenograft tumor model; assay: Anticancer efficacy in Balb/c nude mice, WiDr xenograft (Example 8); details: BALB/c nude mice with WiDr xenograft, 50-100 mg/Kg p.o. or i.p.
Experimental: Female BALB/c nude mice weighing ˜20 g were taken and 5.0 10^6 WiDr cancer cells were implanted into their right flanks with 1:1 mixture of 0.1 mL PBS and matrigel. The mice were arbitrarily chosen by chance and assigned into 7 groups (6 animals/group) and the treatment was started from the same day of the implantation of cancer cells. Mice in group 1 were orally administered two times daily with 100 mg/Kg of Compound 20. Mice in group 2 were orally administered four times per day with 50 mg/Kg of Compound 20. Group 3 mice were injected intraperitoneally 2 times per day with 100 mg/Kg of Compound 20. Group 4 mice were injected intraperitoneally one time per day with 100 mg/Kg and group 5 mice were injected intraperitoneally 2 times per day with 50 mg/Kg of Compound 20. Group 6 was treated with 0.2 mL of 2% DMSO in water intraperitoneally 4 times daily and group 7 mice were assigned as the control group to which tumor was allowed to grow without any drug administration (food only). The tumor volume was recorded every two days using the formula
[formula] where a is the long diameter of the tumor and b is the short diameter of the tumor. […] The inhibition rate was determined using the formula:
[formula] where C is average tumor weight of control group, T is average tumor weight of test group. […] The inhibition rate was determined using the above formula.

[4] = ICR, ip, 100 mg/kg, 100 mg/kg i.p., read-out: Plasma Concentration, individual animals (1#, 2#, 3#)
[5] = ICR, ip, 100 mg/kg, 100 mg/kg i.p., n = 3, read-out: Plasma Concentration, Mean
[6] = ICR, ip, 100 mg/kg, 100 mg/kg i.p.
[7] = ICR, po, 100 mg/kg, 100 mg/kg p.o., n = 3, read-out: Plasma Concentration, Mean
[8] = ICR, po, 100 mg/kg, 100 mg/kg p.o., read-out: Plasma Concentration, individual animals (1#, 2#, 3#)
[9] = ICR, po, 100 mg/kg, 100 mg/kg p.o.

COc1cc(N(c2ccccc2)c2ccccc2)ccc1/C=C(\C#N)C(=O)O [Compound 20]
concentration at 2 h [1, 4]: 38800 ng/mL
concentration at 4 h [1, 5]: 25100 ng/mL
concentration at 4 h [1, 4]: 25000 ng/mL
concentration at 6 h [1, 6]: 7850 ng/mL
concentration at 8 h [1, 5]: 2840 ng/mL
concentration at 8 h [1, 4]: 2760 ng/mL
concentration at 24 h [1, 6]: 121 ng/mL
concentration at 0 h [1, 7]: 0 ng/mL
concentration at 0 h [1, 8]: 0 ng/mL
concentration at 0.083 h [1, 7]: 3430 ng/mL
concentration at 0.083 h [1, 8]: 2210 ng/mL
concentration at 0.25 h [1, 7]: 9130 ng/mL
concentration at 0.25 h [1, 8]: 9690 ng/mL
concentration at 0.5 h ([1]; ICR, po, 100 mg/kg, 100 mg/kg p.o., 0.5 h, n = 3, read-out: Plasma Concentration, Mean): 15500 ng/mL
concentration at 1 h ([1]; ICR, po, 100 mg/kg, 100 mg/kg p.o., 1 h, n = 3, read-out: Plasma Concentration, Mean): 7050 ng/mL
concentration at 2 h [1, 7]: 3150 ng/mL
concentration at 4 h [1, 7]: 3090 ng/mL
concentration at 6 h [1, 9]: 2470 ng/mL
concentration at 8 h [1, 7]: 4010 ng/mL
concentration at 24 h [1, 9]: 47.7 ng/mL
AUC(0-inf) ([1]; ip, 100 mg/kg i.p.): 201 µg·h/mL
AUC(0-t) ([1]; ip, 100 mg/kg i.p.): 201 µg·h/mL
Cmax ([1]; ip, 100 mg/kg i.p.): 61300 ng/mL
Tmax ([1]; ip, 100 mg/kg i.p.): 30 min
Vd/F ([1]; ip, 100 mg/kg i.p.): 2.35 L/kg
AUC(0-inf) ([1]; po, 100 mg/kg p.o.): 66 µg·h/mL
AUC(0-t) ([1]; po, 100 mg/kg p.o.): 65.7 µg·h/mL
Cmax ([1]; po, 100 mg/kg p.o.): 17500 ng/mL
Tmax ([1]; po, 100 mg/kg p.o.): 40 min
Vd/F ([1]; po, 100 mg/kg p.o.): 6.55 L/kg
Weight in grams (Day 0) ([2]; 10 mg/kg i.p. twice daily): 21.93 grams
Weight in grams (Day 22) ([2]; 10 mg/kg i.p. twice daily): 23.38 grams
Weight in grams (Day 0) ([2]; 50 mg/kg p.o. twice daily): 21.85 grams
Weight in grams (Day 22) ([2]; 50 mg/kg p.o. twice daily): 23.01 grams
systemic toxicity (inference from Example 8) [3]: without much systemic toxicity
